In publication PMC7433030 (Bioorganic & medicinal chemistry, 2020):

Experiments:
[1] = In vivo PK study, single subcutaneous dose in CD2F1 mice; details: male, CD2F1, mouse, sc, 200 mg/kg
[2] = format: in vitro ADME; details: mouse liver microsomes, without NADPH (data not shown)
[3] = tested on: G-CSF production; assay: In vivo G-CSF stimulation assay; parameters: species or system mouse; details: CD2F1 mice, 200 mg/Kg subcutaneously; for G-CSF production in mice after treatment: plasma G-CSF 8-48 h

Row | SMILES | Tmax [1] | Tmax at 24 h [1] | degradation in the absence of NADPH [2] | lag time before plasma G-CSF increase [3] | time of peak plasma G-CSF concentration [3] | G-CSF production in mice after treatment [3]
1 | CC(C)=CCC/C(C)=C/CC/C(C)=C/CC[C@]1(C)CCc2cc(O)cc(C)c2O1 [DT3, δ-tocotrienol] | ~1 h | 1 h | no degradation was observed | about 6 h | 24 h | significant G-CSF production
2 | [2H]C([2H])([2H])C(=CCC/C(C)=C/CC/C(C)=C/CC[C@]1(C)CCc2cc(O)cc(C)c2O1)C([2H])([2H])[2H] [d6-DT3, (R)-2-((3E,7E)-4,8-dimethyl-12-(methyl-d3)trideca-3,7,11-trien-1-yl-13,13,13-d3)-2,8-dimethylchroman-6-ol] |  |  | no degradation was observed | about 6 h | 24 h | significant G-CSF production
